# Measured values from patent US20240051937A1, “ISOINDOLINONE AMIDE COMPOUNDS USEFUL TO TREAT DISEASES ASSOCIATED WITH GSPT1” (Monte Rosa Therapeutics, Inc., priority 2021, published 2024).
# Read-outs that look alike come from different tables or passages of the source.
# What was measured:
# GSPT1 = GSPT1 (Homo sapiens, UniProt P15170+Q96SW2); assay: Immunofluorescence assay for GSPT1 degradation in CAL-Si cells; assay type: cell-based; set-up: CAL-Si cells were purchased from DSMZ (cat. Number ACC302); host or cells: CAL-Si (CAL-51) cells; settings: 6 hours treatment
# Description: The representative compounds were tested in an immunofluorescence assay for their activity to bind to degrade GSPT1. CAL-Si cells were purchased from DSMZ (cat. Number ACC302), sub-cultured in 90% Dulbecco's MEM (4.5 g/L glucose, Gibco 11965)+10% […] inactivated FBS (BioConcept, 2-01F136I) and incubated at 37° C., 5% CO2. For the assay, imaging microtiterplate Cell Carrier 96 Ultra (Perkin Elmer 6055302) were pre-coated with Fibronectin (Sigma F085, 30 μl at 0.2 μg/ml) in PBS (100 μl, Gibco 14190) for 45 min at room temperature, rinsed with PBS and CAL-Si cells (30K cells/well) were plated and let to adhere overnight. Cells were treated with compounds typically using a serial dilution ranging from 30 μM to 0.1 nM for 6 hours. Compounds were stored at 10 mM DMSO stocks. Vehicle (DMSO), positive (CC-885, 10 μM) and rescue controls (positive control plus 0.2 μM bortezomib) were also included at this stage. Cells were subsequently rinsed with PBS and fixed in 10% Formalin solution (50 μl, Sigma HT5011)) for 20 mins at room temperature. Following three consecutive PBS washes (100 μl), cells were permeabilized in 0.1% Triton X-100 in PBS (Sigma 93443, 50 μl) for 15 mins at room temperature. Following three further PBS washes, […] blocking buffer (1% BSA, Sigma A4503, in PBS) was added for 45 min for signal-to-noise reduction.
# Primary antibody (human GSPT1, Sigma HPA052488) was diluted in blocking buffer (dil.1/300, 35 μl/well) and incubated with the cells overnight at 4° C. After three PBS washes, Alexa-fluor 488 coupled secondary antibodies (Invitrogen, A32731, dil.1/1000), Alexa-fluor 647-Phalloidin (Invitrogen, A22287, dil.1/200) and DAPI (Thermo, #62248, dil.1/1000) were diluted in blocking buffer and incubated with the samples for 2 hours at room temperature. After three final PBS washes, samples were conserved in […] PBS in the dark, until measurement. Image acquisition was performed on the Operetta High-Content Imager (Perkin-Elmer). Fluorescence intensity of Alexa-Fluor 488 (GSPT1), Alexa-Fluor 647 (Actin) and DAPI (Nucleus) were measured. For the determination of GSPT1 DC50 values, a custom algorithm implemented in the PerkinElmer image analysis software Harmony-Acapella® was developed. After user-defined setting of adjustment parameters, the analysis was run identically without human intervention for all image fields. DAPI staining of the nuclei was used to determine the location of cells using standard nuclei detection modules. Segmentation artifacts were removed by threshold-based filters for area, roundness and intensity. The outline of the cells was determined analogously from the sum of the normalized, smoothed DAPI and Actin channel, starting from each nucleus.
# The Alexa-Fluor 488 (GSPT1) signal intensity in each cell was finally measured, in order to obtain a Mean intensity per cell. GSPT1 degradation (DC50) was calculated after normalization to controls and data import in CDD vault Database, using non-linear regression.
# [1] = biological target: T1, Full length wild-type cereblon CRBN (Homo sapiens, UniProt Q96SW2); assay: Fluorescence polarization (FP) assay indicating cereblon binding
# T1 construct: Full length wild-type cereblon CRBN (80.0 nM, 10 μL) was incubated in assay buffer
# Excerpt: Protocol for Fluorescent Polarization Assay
# Compound activity was monitored in a fluorescence polarization (FP) homogeneous assay using 1-[5-({2-[2-(2-{[2-(2,6-dioxopiperidin-3-yl)-1,3-dioxo-2,3-dihydro-1H-isoindol-4-yl]oxy}acetamido)ethoxy]ethyl}carbamoyl)pentyl]-3,3-dimethyl-2-[(1E,3E)-5-[(2E)-1,3,3-trimethyl-5-sulfo-2,3-dihydro-1H-indol-2-ylidene]penta-1,3-dien-1-yl]-3H-indol-1-ium-5-sulfonate as a fluorescent probe. Unless otherwise stated, all reagents were purchased from Sigma Aldrich. Enzymatic reactions were conducted in Perkin-Elmer Black 384 well ProxiPlate Plus (catalogue no. 6008269) in 10 μL total volume. Full length wild-type cereblon CRBN (80.0 nM, 10 μL) was incubated in assay buffer containing 20 mM HEPES (pH 8.0), […], 0.5 mM TCEP and 0.05% Tween 20 in the presence or absence of compound (300 nL). Inhibitors were stored as 10 mM DMSO stocks in an inert environment (low humidity, dark, low oxygen, room temperature) using the Storage Pod System. Compounds and DMSO were dispensed using the Echo E5XX (Labcyte Inc. USA) to give concentrations from 300 to 0.937 or 3000 to 9.3 nM in a 12 data point curve. […] Following incubation at room temperature for 30 min, the assay was initiated by dispensing the probe to a final concentration of 5 nM (2.5 nL of a 20 μM stock) using the Echo E5XX. FP was measured after a period of 12 hours using a Pherastar plate reader (BMG Labtech, Germany) exciting at 590 nm and measuring the amount of parallel and perpendicular light at 675 nm. The FP signal was subsequently normalized to the no-compound control (i.e., DMSO). Analysis and IC50 values were derived using Dotmatics (Dotmatics UK) software.
# [2] = read-out: Code: activity for GSPT1 degradation (DC50)
# [3] = cereblon binding, CRBN 80.0 nM, probe 5 nM, FP read after 12 hours, read-out: rFP IC50
# [4] = fluorescence polarization assay, read-out: IC50 value (cereblon binding)
# [5] = GSPT1 degradation, read-out: DC50
# Sequence of GSPT1 (P15170 whole entry): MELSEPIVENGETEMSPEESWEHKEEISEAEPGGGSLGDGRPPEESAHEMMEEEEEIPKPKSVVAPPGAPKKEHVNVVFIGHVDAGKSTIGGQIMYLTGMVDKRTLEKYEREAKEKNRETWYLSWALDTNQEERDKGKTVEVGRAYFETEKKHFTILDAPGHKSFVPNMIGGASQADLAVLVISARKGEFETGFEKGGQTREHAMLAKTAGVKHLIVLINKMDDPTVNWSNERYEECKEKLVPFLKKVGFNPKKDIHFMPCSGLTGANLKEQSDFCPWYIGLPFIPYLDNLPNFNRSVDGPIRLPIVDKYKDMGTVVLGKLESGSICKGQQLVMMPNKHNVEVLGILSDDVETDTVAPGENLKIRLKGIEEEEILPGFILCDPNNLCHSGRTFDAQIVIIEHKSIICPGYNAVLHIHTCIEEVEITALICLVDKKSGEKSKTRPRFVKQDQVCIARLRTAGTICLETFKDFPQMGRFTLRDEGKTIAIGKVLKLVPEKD
# Sequence of GSPT1 (Q96SW2 whole entry): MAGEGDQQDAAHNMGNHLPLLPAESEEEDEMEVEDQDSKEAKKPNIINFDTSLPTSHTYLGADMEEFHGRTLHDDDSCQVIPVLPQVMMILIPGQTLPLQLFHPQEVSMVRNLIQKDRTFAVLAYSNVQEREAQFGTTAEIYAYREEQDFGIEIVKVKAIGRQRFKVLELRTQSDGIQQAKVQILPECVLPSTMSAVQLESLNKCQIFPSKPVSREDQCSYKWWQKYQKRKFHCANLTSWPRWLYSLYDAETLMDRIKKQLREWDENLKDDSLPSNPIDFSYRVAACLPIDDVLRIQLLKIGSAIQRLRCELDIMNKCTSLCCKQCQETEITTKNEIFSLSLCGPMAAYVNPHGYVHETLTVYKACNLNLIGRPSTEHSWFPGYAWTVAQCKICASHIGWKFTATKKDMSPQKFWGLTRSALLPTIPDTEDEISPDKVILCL
# Sequence of GSPT1 (Q16531 whole entry partner): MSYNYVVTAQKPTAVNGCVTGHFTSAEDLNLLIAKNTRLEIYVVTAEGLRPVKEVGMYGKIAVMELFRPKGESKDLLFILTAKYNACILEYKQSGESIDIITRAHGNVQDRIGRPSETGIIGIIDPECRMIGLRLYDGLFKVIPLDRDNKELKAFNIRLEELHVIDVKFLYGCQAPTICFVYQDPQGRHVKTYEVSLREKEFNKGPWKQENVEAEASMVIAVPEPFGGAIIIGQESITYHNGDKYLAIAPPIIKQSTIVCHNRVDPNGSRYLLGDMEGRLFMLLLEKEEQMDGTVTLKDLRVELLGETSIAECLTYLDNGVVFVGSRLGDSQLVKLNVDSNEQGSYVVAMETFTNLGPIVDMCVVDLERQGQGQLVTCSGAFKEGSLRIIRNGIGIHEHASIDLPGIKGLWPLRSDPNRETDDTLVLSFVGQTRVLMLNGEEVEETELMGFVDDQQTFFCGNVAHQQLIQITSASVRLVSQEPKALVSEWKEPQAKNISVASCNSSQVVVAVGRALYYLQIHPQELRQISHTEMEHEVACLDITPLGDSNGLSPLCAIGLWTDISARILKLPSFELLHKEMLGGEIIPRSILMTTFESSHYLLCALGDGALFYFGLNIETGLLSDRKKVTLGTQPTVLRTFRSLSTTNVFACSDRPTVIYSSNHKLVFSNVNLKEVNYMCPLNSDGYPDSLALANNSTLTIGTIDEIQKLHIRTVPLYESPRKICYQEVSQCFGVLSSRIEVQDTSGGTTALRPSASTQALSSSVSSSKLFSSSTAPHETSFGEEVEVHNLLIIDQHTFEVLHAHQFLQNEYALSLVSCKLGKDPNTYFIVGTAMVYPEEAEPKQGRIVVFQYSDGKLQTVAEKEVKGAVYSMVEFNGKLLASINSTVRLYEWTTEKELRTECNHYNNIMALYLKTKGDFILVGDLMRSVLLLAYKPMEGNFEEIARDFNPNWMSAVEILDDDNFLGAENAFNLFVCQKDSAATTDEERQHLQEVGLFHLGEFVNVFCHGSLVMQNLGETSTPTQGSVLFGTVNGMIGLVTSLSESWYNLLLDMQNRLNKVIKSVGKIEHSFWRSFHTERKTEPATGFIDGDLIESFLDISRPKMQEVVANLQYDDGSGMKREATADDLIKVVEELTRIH
# T1 sequence (Q96SW2 whole entry): as the sequence (Q96SW2 whole entry) above
Structure (SMILES),DC50 (GSPT1; [2]) [nM],"IC50 [1, 3] [nM]","IC50 [1, 4] [nM]",DC50 (GSPT1; [5]) [nM]
O=C1CCC(N2Cc3ccc(CCC(=O)NC4CCCC4)cc3C2=O)C(=O)N1 (stereo not shown) [Compound 17],> 300,500 to 1100,< 1100,–
COc1cc(NC(=O)CCc2ccc3c(c2)C(=O)N(C2CCC(=O)NC2=O)C3)cnc1C (stereo not shown) [Compound 36],> 300,1100 to 1700,–,–
COc1cc(Cl)ccc1NC(=O)CCc1ccc2c(c1)C(=O)N(C1CCC(=O)NC1=O)C2 (stereo not shown) [Compound 16],> 300,≤ 500,< 1100,–
O=C1CCC(N2Cc3ccc(CCC(=O)N4CCC(Oc5ccccc5)C4)cc3C2=O)C(=O)N1 (stereo not shown) [Compound 21],> 300,> 1700,–,–
O=C1CCC(N2Cc3ccc(CCC(=O)N4CCCC4)cc3C2=O)C(=O)N1 (stereo not shown) [Compound 15],> 300,1100 to 1700,–,–
Cc1c(Cl)cc(NC(=O)CCc2ccc3c(c2)C(=O)N(C2CCC(=O)NC2=O)C3)cc1OCC1CCN(C)C1 (stereo not shown) [Compound 61],> 300,≤ 500,< 1100,–
"Cc1ccc(NC(=O)COc2ccc3c(c2)C(=O)N(C2CCC(=O)NC2=O)C3)cc1Cl (stereo not shown) [Compound 69, N-(3-chloro-4-methylphenyl)-2-((2-(2,6-dioxopiperidin-3-yl)-3-oxoisoindolin-5-yl)oxy)acetamide]",> 300,500 to 1100,–,–
COc1ccc(Cl)cc1NC(=O)CCc1ccc2c(c1)C(=O)N(C1CCC(=O)NC1=O)C2 (stereo not shown) [Compound 14],> 300,500 to 1100,< 1100,–
O=C1CCC(N2Cc3ccc(CCC(=O)Nc4cnc5c(c4)CCC5)cc3C2=O)C(=O)N1 (stereo not shown) [Compound 49],> 300,1100 to 1700,–,–
COc1cc(C)c(Cl)cc1NC(=O)CCc1ccc2c(c1)C(=O)N(C1CCC(=O)NC1=O)C2 (stereo not shown) [Compound 10],> 300,500 to 1100,< 1100,–
O=C1CCC(N2Cc3ccc(CCC(=O)Nc4ccc(C5CC5)cc4)cc3C2=O)C(=O)N1 (stereo not shown) [Compound 38],> 300,≤ 500,< 1100,–
O=C1CCC(N2Cc3ccc(CCC(=O)Nc4cc(Cl)cc(OC5CCNC5)c4)cc3C2=O)C(=O)N1 (stereo not shown) [Compound 19],> 300,500 to 1100,< 1100,–
"Cc1c(Cl)cc(NC(=O)COc2ccc3c(c2)C(=O)N(C2CCC(=O)NC2=O)C3)cc1CN1CCOCC1 (stereo not shown) [Compound 68, N-(3-chloro-4-methyl-5-(morpholinomethyl)phenyl)-2-((2-(2,6-dioxopiperidin-3-yl)-3-oxoisoindolin-5-yl)oxy)acetamide]",> 300,≤ 500,–,–
O=C1CCC(N2Cc3ccc(CCC(=O)Nc4cc(F)cc(Cl)c4)cc3C2=O)C(=O)N1 (stereo not shown) [Compound 18],> 300,> 1700,–,–
"Cc1c(Cl)cc(NC(=O)CCc2ccc3c(c2)C(=O)N(C2CCC(=O)NC2=O)C3)cc1OC1CCNC1 (stereo not shown) [Compound 40, N-(3-chloro-4-methyl-5-(pyrrolidin-3-yloxy)phenyl)-3-(2-(2,6-dioxopiperidin-3-yl)-3-oxoisoindolin-5-yl)propanamide]",> 300,≤ 500,< 1100,–

# The remaining lines, values ahead:
DC50 (GSPT1; [2]) [nM],"IC50 [1, 3] [nM]","IC50 [1, 4] [nM]",DC50 (GSPT1; [5]) [nM],Structure (SMILES)
30 to 300,500 to 1100,< 1100,–,O=C1CCC(N2Cc3ccc(CCC(=O)Nc4ccc(N5CCCCC5)nc4)cc3C2=O)C(=O)N1 (stereo not shown) [Compound 20]
≤ 30,1100 to 1700,–,30,Cc1c(F)cc(NC(=O)CCc2ccc3c(c2)C(=O)N(C2CCC(=O)NC2=O)C3)cc1CN1CCOCC1 (stereo not shown) [Compound 42]
30 to 300,500 to 1100,< 1100,–,O=C1CCC(N2Cc3ccc(CCC(=O)Nc4ccc(F)c(Cl)c4)cc3C2=O)C(=O)N1 (stereo not shown) [Compound 8]
> 300,500 to 1100,< 1100,–,O=C1CCC(N2Cc3ccc(CCC(=O)Nc4ccc5c(c4)OCC5)cc3C2=O)C(=O)N1 (stereo not shown) [Compound 26]
≤ 30,> 1700,–,27,O=C1CCC(N2Cc3ccc(CCC(=O)Nc4cc(Cl)cc(OC(F)F)c4)cc3C2=O)C(=O)N1 (stereo not shown) [Compound 23]
≤ 30,500 to 1100,< 1100,12,Cc1c(CN2CCOCC2)cc(NC(=O)CCc2ccc3c(c2)C(=O)N(C2CCC(=O)NC2=O)C3)cc1OC(F)F (stereo not shown) [Compound 35]
30 to 300,≤ 500,< 1100,–,CC(F)(F)c1ccc(NC(=O)CCc2ccc3c(c2)C(=O)N(C2CCC(=O)NC2=O)C3)cc1 (stereo not shown) [Compound 63]
≤ 30,1100 to 1700,–,26,CC(C)(C)c1ccc(NC(=O)CCc2ccc3c(c2)C(=O)N(C2CCC(=O)NC2=O)C3)cn1 (stereo not shown) [Compound 41]
30 to 300,500 to 1100,< 1100,–,CCOc1cc(NC(=O)CCc2ccc3c(c2)C(=O)N(C2CCC(=O)NC2=O)C3)ccc1C (stereo not shown) [Compound 32]
≤ 30,500 to 1100,< 1100,25,Cc1cc(C)cc(NC(=O)CCc2ccc3c(c2)C(=O)N(C2CCC(=O)NC2=O)C3)c1 (stereo not shown) [Compound 7]
≤ 30,≤ 500,< 1100,13,O=C1CCC(N2Cc3ccc(CCC(=O)Nc4ccc(-c5ccccc5)nc4)cc3C2=O)C(=O)N1 (stereo not shown) [Compound 34]
≤ 30,1100 to 1700,–,6,Cc1ccc(NC(=O)CCc2ccc3c(c2)C(=O)N(C2CCC(=O)NC2=O)C3)cc1OC(F)F (stereo not shown) [Compound 29]
30 to 300,≤ 500,< 1100,–,Cc1c(Cl)cc(NC(=O)CCc2ccc3c(c2)C(=O)N(C2CCC(=O)NC2=O)C3)cc1OCCN1CCOCC1 (stereo not shown) [Compound 39]
≤ 30,500 to 1100,< 1100,22,CC(C)(C)c1ccc(NC(=O)CCc2ccc3c(c2)C(=O)N(C2CCC(=O)NC2=O)C3)cc1 (stereo not shown) [Compound 45]
30 to 300,> 1700,–,–,O=C1CCC(N2Cc3ccc(CCC(=O)Nc4ccc(F)c(OC(F)(F)F)c4)cc3C2=O)C(=O)N1 (stereo not shown) [Compound 60]
30 to 300,≤ 500,< 1100,–,Cc1ncc(NC(=O)CCc2ccc3c(c2)C(=O)N(C2CCC(=O)NC2=O)C3)cc1Cl (stereo not shown) [Compound 3]
30 to 300,> 1700,–,–,CCc1cc(NC(=O)CCc2ccc3c(c2)C(=O)N(C2CCC(=O)NC2=O)C3)sn1 (stereo not shown) [Compound 65]
30 to 300,500 to 1100,< 1100,–,CCc1ncc(NC(=O)CCc2ccc3c(c2)C(=O)N(C2CCC(=O)NC2=O)C3)cc1C (stereo not shown) [Compound 47]
